Where a name gives a salt, the structure may show the parent alone.
Key:
[1] = Metabolite characterization in cryopreserved hepatocytes; settings: hepatocyte incubations, 20 μM; R, rat; D, dog; H, human; Media = decomposition product observed in media control
Procedure: Pooled male rat, dog, and mixed male and female human cryopreserved hepatocytes were used in this study. The cryopreserved hepatocytes (two vials from each species; three to five million viable cells per vial) were thawed in a 37° C. water bath with gentle shaking until the ice was almost melted. The suspensions from the two individual vials of the same species were immediately transferred to a 50 mL centrifuge tube containing pre-warmed thawing media at 37° C. with gentle handshaking to prevent the cells from settling. The cell suspension was centrifuged at 50 g for 5 min at 4° C. Supernatants were discarded and the pellets were resuspended in pre-warmed incubation media (8 mL) at 37° C. […] [^14C]COMPOUND I (20 μM) was incubated in a 12-well plate containing hepatocyte suspensions at 1.0 mL per well in duplicate (≧1 million viable cells/well) at 37° C. for 1 or 4 hr in the presence of 5% CO2:95% O2. Control incubations without hepatocytes were also run under the same conditions. Positive controls containing [^14C]7-ethoxycoumarin (100 μM) were also incubated under the same conditions, but only for 1 hr. At the end of the incubations, reactions were stopped by adding acetonitrile with 2% acetic acid (1 mL), mixed for 10 min, followed by centrifugation at 4000 rpm for 10 min at 4° C. Aliquots (50 μL) of supernatants were analyzed by HPLC with UV and radioactivity flow detection for metabolite profiling, and by LC/MS for metabolite identification as described in below. To determine extraction recovery, aliquots (20 μL) of supernatants were analyzed for radioactivity content utilizing a Packard Tri-Carb Model 3100 TR liquid scintillation counter and 5 mL of Ultima Gold.
The HPLC system used for mass spectrometric analysis was a Waters Alliance model 2695 HPLC system (Waters Corp). It was equipped with a built-in autosampler and a model 996 diode array UV detector. The UV detector was set to monitor 210-400 nm. The HPLC conditions were the same as those described hereinabove with the following exceptions. […]

[2] = In vivo metabolism and excretion of [14C]COMPOUND I in male beagle dogs, single oral 3 mg/kg dose; set-up: species or system dog; settings: 3 mg/kg oral
Procedure: Dose preparation, animal dosing, and specimen collection were performed at Wyeth Research, Collegeville, Pa. The vehicle contained 2% (w/v) polysorbate 80, NF and 0.5% (w/v) methylcellulose (4000 cps) in water. [^14C]COMPOUND I trisuccinate salt (50.25 mg) and non-labeled COMPOUND I trisuccinate salt (331.9 mg) were suspended in 72 mL of the vehicle by grinding with a mortar and a pestle. The target [^14C]COMPOUND I concentration was approximately 3 mg/mL as free base and 48 μCi/mL with a target specific activity of 16 μCi/mg. Three pre- and post-dose aliquots (100 μL) were taken for the determination of radiochemical purity, drug and radioactivity concentrations and specific activity (see below).
Four male beagle dogs, weighing from 9.4 to 11.5 kg at the time of dosing, were from an in-house colony. Non-fasted dogs were given a single 3 mg/kg (approximately 48 μCi/kg) dose of [^14C]COMPOUND I at a volume of 1 mL/kg via intragastric gavage. Animals were provided Purina dog chow and water ad libitum, and were housed individually in metabolic cages.
Blood samples were collected from the jugular vein at 1, 4, 8, 24, 48, 72 and 120 hr after dose administration into tubes containing potassium EDTA as the anticoagulant and then placed on ice. Aliquots of 200 μL were removed and plasma was harvested immediately from the remaining blood by centrifugation at 4° C. Urine samples were collected into tubes on dry ice from 0-24 and 24-48 hr, and then at ambient temperature at 24 hr intervals for 7 days post-dose. Fecal samples were collected at 24 hr intervals for 7 days post-dose at room temperature. Cage rinses were collected daily by rinsing each cage with approximately 500 mL of 30% ethanol in water. The dose aliquots and biological specimens were stored at approximately −70° C. until analysis.
Triplicate aliquots of diluted dose (20 μL), dose fractions (10 μL) and plasma (50 μL), urine (200 μL) and cage wash (500 μL) from individual dogs were analyzed for radioactivity content. The samples were assayed in a Tri-Carb Model 3100TR liquid scintillation counter (Perkin Elmer) using 5 mL of Ultima Gold scintillation cocktail.
Fecal samples from individual dogs were weighed and homogenized in water at a volume-to-weight ratio of about 4:1 with a Silverson sealed-unit homogenizer at ambient temperature. Triplicate aliquots of whole blood (50 μL) and fecal homogenates (approximately 0.2 g) were placed into Combusto-cones with Combusto-pads and allowed to dry overnight. Samples were combusted with a model 307 Tri-Carb Sample Oxidizer, equipped with an Oximate-80 Robotic Automatic Sampler (Perkin Elmer). The liberated ^14CO2 was trapped with Carbo-Sorb® E carbon dioxide absorber, mixed with PermaFluor® E+liquid scintillation cocktail, and counted in a Tri-Carb Model 3100 TR/LL liquid scintillation counter.
Plasma samples were pooled by mixing equal volumes from four animals at each time point (1, 4, 8 and 24 hr). Aliquots of 2.0 mL of pooled plasma were mixed with 2.0 mL of acetonitrile, placed on ice for about 10 min, and then centrifuged at 4° C. The supernatant was transferred to a clean tube. The protein pellets were extracted two more times with 2.0 mL of acetonitrile. The supernatants from precipitation and extraction of each sample were pooled, mixed, and evaporated at 22° C. under nitrogen in a TurboVap LV evaporator (Caliper Life Sciences, Hopkinton, Mass.) to about 0.8 mL. The concentrated extract was centrifuged, the supernatant volume measured and the extraction efficiency was determined by analyzing duplicate 10 μL aliquots for radioactivity concentrations. For metabolite profiling, an aliquot of the supernatant (200 μL) was injected onto the HPLC column as described hereinbelow, and fractions were collected at 20 second intervals into 96-well Lumaplates (Perkin Elmer).

Source [1]: R (trace), D, H
Source ([2]; P, plasma, F, feces): P, F
percent of total fecal radioactivity ([2]; pooled 0-24 hr fecal sample): 79.3%
percent of total fecal radioactivity ([2]; pooled 24-48 hr fecal sample): 60.9%
SMILES: Oc1cc(N2CCN(C3CCN(c4ccc(F)c5cccnc45)CC3)CC2)c2ncccc2c1 [Metabolite M21, 8-{4-[1-(5-fluoroquinolin-8-yl)piperidin-4-yl]piperazin-1-yl}quinolin-6-ol trihydrochloride]
